Data: ChEMBL document CHEMBL5223117, “Synthesis and biological evaluation of novel N, N'-diarylurea derivatives as potent antibacterial agents against MRSA” (Bioorg Med Chem Lett, 2022)
Active and inactive are the calls of the source.

What was measured:
Staphylococcus aureus [1] = test: Antibacterial activity against methicillin resistant Staphylococcus aureus 18-2; type: functional
Staphylococcus aureus [2] = test: Antibacterial activity against methicillin resistant Staphylococcus aureus 20-11; type: functional
Staphylococcus aureus [3] = test: Antibacterial activity against methicillin sensitive Staphylococcus aureus ATCC 29213; type: functional
Staphylococcus aureus [4] = test: Antibacterial activity against vancomycin intermediate and methicillin resistant Staphylococcus aureus ATCC 700699; type: functional
[5] = test system: Staphylococcus epidermidis; test: Antibacterial activity against methicillin sensitive Staphylococcus epidermidis 17-13; type: functional
Enterococcus faecium [6] = test: Antibacterial activity against Vanomycin-resistant Enterococcus faecium 15-6; type: functional
Enterococcus faecalis [7] = test: Antibacterial activity against Vanomycin-resistant Enterococcus faecalis ATCC 51299; type: functional
Staphylococcus aureus [8] = test: Antibacterial activity against vancomycin intermediate and methicillin resistant Staphylococcus aureus ATCC 700698; type: functional
Enterococcus faecium [9] = test: Antibacterial activity against Vanomycin-resistant Enterococcus faecium ATCC 51559; type: functional
Enterococcus faecalis [10] = test: Antibacterial activity against Vanomycin-resistant Enterococcus faecalis ATCC 51575; type: functional
[11] = test system: Staphylococcus epidermidis; test: Antibacterial activity against methicillin sensitive Staphylococcus epidermidis ATCC 12228; type: functional
[12] = test system: Staphylococcus epidermidis; test: Antibacterial activity against methicillin resistant Staphylococcus epidermidis 19-1; type: functional
Staphylococcus aureus [13] = test: Antibacterial activity against methicillin sensitive Staphylococcus aureus ATCC 33591; type: functional
[14] = test system: Staphylococcus epidermidis; test: Antibacterial activity against methicillin resistant Staphylococcus epidermidis 19-2; type: functional
Staphylococcus aureus [15] = test: Antibacterial activity against methicillin sensitive Staphylococcus aureus 15; type: functional
Staphylococcus aureus [16] = test: Antibacterial activity against methicillin resistant Staphylococcus aureus ATCC 43300; type: functional
Enterococcus faecium [17] = test: Antibacterial activity against Vanomycin-resistant Enterococcus faecium ATCC 700221; type: functional
Staphylococcus aureus [18] = test: Antibacterial activity against methicillin sensitive Staphylococcus aureus 20-12; type: functional
[19] = Cytotoxicity against human HeLa cells by SRB assay; type: toxicity, cell-based
[20] = Cytotoxicity against human HepG2 cells by SRB assay; type: toxicity, cell-based

O=C(Nc1ccc(C(F)(F)F)cc1)Nc1ccc(Cl)c(C(F)(F)F)c1
20.9 µM: MIC (Staphylococcus aureus [2]) | MIC (Staphylococcus aureus [3]) | MIC [5] | MIC (Enterococcus faecium [6]) | MIC (Staphylococcus aureus [8]) | MIC (Enterococcus faecalis [10]) | MIC [11] | MIC (Staphylococcus aureus [16]) | MIC (Staphylococcus aureus [18])
41.8 µM: MIC (Enterococcus faecalis [7]) | MIC (Enterococcus faecium [9]) | MIC (Enterococcus faecium [17])
10.4 µM: MIC (Staphylococcus aureus [1]) | MIC (Staphylococcus aureus [4]) | MIC [12] | MIC (Staphylococcus aureus [13]) | MIC [14] | MIC (Staphylococcus aureus [15])

CN(C(=O)Nc1ccc(Cl)c(C(F)(F)F)c1)c1cccc(Cl)c1F
inactive: MIC (Staphylococcus aureus [1]) | MIC (Staphylococcus aureus [2]) | MIC (Staphylococcus aureus [3]) | MIC (Staphylococcus aureus [4]) | MIC [5] | MIC (Staphylococcus aureus [8]) | MIC [11] | MIC [12] | MIC (Staphylococcus aureus [13]) | MIC [14] | MIC (Staphylococcus aureus [15]) | MIC (Staphylococcus aureus [16]) | MIC (Staphylococcus aureus [18])

CNC(=O)c1cc(Oc2ccc(NC(=O)N3CCN(c4ccc(Cl)c(C(F)(F)F)c4)C3=O)cc2)ccn1
inactive: MIC (Staphylococcus aureus [1]) | MIC (Staphylococcus aureus [2]) | MIC (Staphylococcus aureus [3]) | MIC (Staphylococcus aureus [4]) | MIC [5] | MIC (Staphylococcus aureus [8]) | MIC [11] | MIC [12] | MIC (Staphylococcus aureus [13]) | MIC [14] | MIC (Staphylococcus aureus [15]) | MIC (Staphylococcus aureus [16]) | MIC (Staphylococcus aureus [18])

O=C(Nc1ccc(F)cc1)Nc1ccc(Cl)c(C(F)(F)F)c1
3.01 µM: MIC (Staphylococcus aureus [4])
96.2 µM: MIC (Enterococcus faecium [9])
6.01 µM: MIC (Staphylococcus aureus [1]) | MIC [5] | MIC [11] | MIC [12] | MIC (Staphylococcus aureus [13]) | MIC [14] | MIC (Staphylococcus aureus [15])
192 µM: MIC (Enterococcus faecalis [7]) | MIC (Enterococcus faecalis [10])
48.1 µM: MIC (Enterococcus faecium [6]) | MIC (Enterococcus faecium [17])
12 µM: MIC (Staphylococcus aureus [2]) | MIC (Staphylococcus aureus [3]) | MIC (Staphylococcus aureus [8]) | MIC (Staphylococcus aureus [16]) | MIC (Staphylococcus aureus [18])

O=C(Nc1ccc2c(c1)OCO2)Nc1ccc(Cl)c(C(F)(F)F)c1
44.6 µM: MIC (Staphylococcus aureus [2]) | MIC (Staphylococcus aureus [3]) | MIC (Staphylococcus aureus [8])
357 µM: MIC (Staphylococcus aureus [16])
22.3 µM: MIC (Staphylococcus aureus [4]) | MIC [5] | MIC [11] | MIC [12] | MIC [14] | MIC (Staphylococcus aureus [15])

C[C@H]1COc2c(N3CCN(C)CC3)c(F)cc3c(=O)c(C(=O)O)cn1c23 [LEVOFLOXACIN]
88.5 µM: MIC (Enterococcus faecium [9])
177 µM: MIC (Staphylococcus aureus [1]) | MIC (Enterococcus faecium [6]) | MIC (Enterococcus faecium [17])
2.77 µM: MIC (Enterococcus faecalis [10])
0.69 µM: MIC (Staphylococcus aureus [3]) | MIC [5] | MIC [11] | MIC (Staphylococcus aureus [13]) | MIC (Staphylococcus aureus [15])
22.1 µM: MIC (Staphylococcus aureus [4]) | MIC (Staphylococcus aureus [8])
11.1 µM: MIC [12] | MIC [14]
1.38 µM: MIC (Staphylococcus aureus [2]) | MIC (Enterococcus faecalis [7]) | MIC (Staphylococcus aureus [16]) | MIC (Staphylococcus aureus [18])

CNC(=O)c1cc(Oc2ccc(NC(=O)Nc3ccc(Cl)c(C(F)(F)F)c3)cc2)ccn1 [SORAFENIB]
8.61 µM: MIC (Staphylococcus aureus [2]) | MIC (Staphylococcus aureus [3]) | MIC [5] | MIC (Staphylococcus aureus [13]) | MIC (Staphylococcus aureus [18])
17.2 µM: MIC (Staphylococcus aureus [1]) | MIC (Staphylococcus aureus [8]) | MIC (Staphylococcus aureus [16])
3.31 µM: IC50 [19]
275 µM: MIC (Enterococcus faecium [6]) | MIC (Enterococcus faecalis [7]) | MIC (Enterococcus faecium [9]) | MIC (Enterococcus faecalis [10]) | MIC (Enterococcus faecium [17])
4.3 µM: MIC (Staphylococcus aureus [4]) | MIC [11] | MIC [12] | MIC [14] | MIC (Staphylococcus aureus [15])

CNC(=O)c1cc(Oc2ccc(NC(=O)Nc3cc(C(F)(F)F)ccc3Cl)cc2)ccn1
inactive: MIC (Staphylococcus aureus [2]) | MIC (Staphylococcus aureus [3]) | MIC (Staphylococcus aureus [4]) | MIC [5] | MIC (Staphylococcus aureus [8]) | MIC [11] | MIC [12] | MIC [14] | MIC (Staphylococcus aureus [15]) | MIC (Staphylococcus aureus [16])

CN(C(=O)Nc1cccc(Cl)c1F)c1ccc(Cl)c(C(F)(F)F)c1
inactive: MIC (Staphylococcus aureus [1]) | MIC (Staphylococcus aureus [2]) | MIC (Staphylococcus aureus [3]) | MIC (Staphylococcus aureus [4]) | MIC [5] | MIC (Staphylococcus aureus [8]) | MIC [11] | MIC [12] | MIC (Staphylococcus aureus [13]) | MIC [14] | MIC (Staphylococcus aureus [15]) | MIC (Staphylococcus aureus [16]) | MIC (Staphylococcus aureus [18])

O=C(Nc1ccc(OC(F)(F)F)cc1)N1CCN(c2ccc(Cl)c(C(F)(F)F)c2)C1=O
inactive: MIC (Staphylococcus aureus [1]) | MIC (Staphylococcus aureus [2]) | MIC (Staphylococcus aureus [3]) | MIC (Staphylococcus aureus [4]) | MIC [5] | MIC (Staphylococcus aureus [8]) | MIC [11] | MIC [12] | MIC (Staphylococcus aureus [13]) | MIC [14] | MIC (Staphylococcus aureus [15]) | MIC (Staphylococcus aureus [16]) | MIC (Staphylococcus aureus [18])
100 µM: IC50 [20] | IC50 [19]
